Experimental data as given in patent US9518038B2, “Condensation product of theanine derivative and carboxylic acid coumarin derivative, its intermediate, preparation method and use thereof” (SHANDONG YINGDONG YINGHAO BIOTECHNOLOGY, INC., priority 2012, dated 2016).

Experiments:
[1] = system: human pancreatic cancer cells PANC-1 xenograft; experiment: In-vivo growth of PANC-1 xenografts in nude mice; set-up: species or system BALB/c nude mice; details: Mus musculus, ip, vs DMSO solvent control, read-out: Curative effect (inhibition rate %) of tumor weight; for inhibition in vivo at 60 mg/kg: 60 mg/kg intraperitoneal once a day; for inhibition in vivo at 90 mg/kg: 90 mg/kg intraperitoneal once a day
Procedure: (§1) RPMI1640 and DMEM culture solutions: Hyclone Company; inactivated fetal bovine serum: Hyclone Company, preserved at −20° C.; trypsin: Amersco Company; and 0.4% trypan blue: Sigma Company;
(§2) (3) Observation of growth of tumors in nude mice: the activities (including food intake, traits of urine and stool, mental state and the like) of the nude mice and the tumor growth time and growth situation of the transplanted tumors were observed every day, the body weight and the size of the tumors were measured once every 2-3 days. The long diameter a and the short diameter b (mm) of each tumor were measured by a vernier caliper to calculate the volume, wherein the volume V=π1/2·ab^2 (mm^3);
(§3) (4) sacrifice of animals: the mice were anesthetized and photoed after treatment experiments; the nude mice were sacrificed by breaking neck, the tumor tissues were stripped under sterile conditions and the weight of the tumors was weighed; and the effects of the drugs on pathology and toxicity of the various organs and tissues were detected.

[2] = system: human pancreatic cancer cells PANC-1; experiment: MTT growth inhibition, PANC-1 cells; format: cell-based; details: 72 h after treatment, read-out: Drug concentration (IC50) at which 50% cancer cells survived
Source text: (§4) Cell lines and cell culture: human lung cancer cells A549 and H460, human breast cancer cells MCF-7 and MDA-MB-231, human gastric cancer cells BGC-823, human prostate cancer cells PC-3, human chronic leukemia cells K562, human lymphoma cells U937, human liver cancer cells SMMC7721 and HepG2, human colon cancer cells HT29, human pancreatic cancer cells PANC-1 and BxPC3, human cervical cancer Hela cell lines, human brain tumor cells Daoy, human neuroma cells D54 and human oral epidermoid cancer cells KBV200 line with strong drug resistance, mouse melanoma cells B16, and highly metastatic Lewis lung cancer cell lines were purchased from American Type Culture Collection of the U.S. These cells were cultured with DMEM and RPMI-1640 culture solutions separately.
(§5) The procedure was as follows:
(§6) (1) 0.25% trypsin was used to digest cancer cells in a logarithmic growth phase to prepare a single-cell suspension, the concentration of cells was adjusted to 5×10^4/mL, and the adjusted suspension was inoculated into a 96-well culture plate with 100 μl per well;
(§7) (2) The culture plate was transferred into a 37° C. incubator with a saturated humidity and 5% of CO2 and cultured for 24 h; the compounds and the intermediates thereof obtained in embodiments 1-7 and the compound as represented by formula (IIIa) or the positive control anti-cancer drug with the concentration of 1-1000 μM/L were added to enable the final concentration to be 0.1-1500 μM/L. Control wells (only added with 200 μl of cell suspension) and drug-free blank control wells (containing the solvent of 0.01% DMSO) were set, each group included 8 wells, and the plate was placed into the 37° C. incubator with saturated humidity and 5% of CO2 for culturing;
(§8) (3) The 96-well plate was taken out at 48 h and 72 h after dosing, the original culture medium was carefully removed by suction, 100 μl of serum-free DMEM culture medium and 10 μl of MTT (5 mg/mL) solution were added in each well. The plate was continuously cultured for another 4 h and then the culture was terminated;
(§9) (4) The supernatant in the wells was carefully removed by suction, each well was added with 150 μl of DMSO and shaked at room temperature for 10-15 min to fully dissolve crystals.
(§10) (5) Colorimetric analysis: the wavelength was selected as 570 nm, the light absorbance (A value) of each well was determined on the microplate reader and the results were recorded; the experiment was repeated for three times;
(§11) (6) the experimental results were calculated according to the following formula: relative survival rate=(A value of each experimental group/A value of cell control group)×100%
(§12) Calculation of median-effect concentration (IC50, namely the drug concentration at which the inhibition rate is 50%, also known as half inhibitory concentration):
(§13) IC50 of the detected component was calculated by using a regression equation.

[3] = system: human liver cancer cells SMMC7721; experiment: MTT growth inhibition, SMMC7721 cells; format: cell-based; details: SMMC-7721, S-7721 (SMMC7721), 72 h after treatment, read-out: Drug concentration (IC50) at which 50% cancer cells survived
Source text: as §4, §5, §6, §7, §8, §9, §10, §11, §12, §13

[4] = system: human lung cancer cells A549 xenograft; experiment: In-vivo growth of A549 xenografts in nude mice; set-up: species or system BALB/c nude mice; details: Mus musculus, ip, vs DMSO solvent control, read-out: Curative effect (inhibition rate %) of tumor weight; for inhibition in vivo at 60 mg/kg: 60 mg/kg intraperitoneal once a day; for inhibition in vivo at 90 mg/kg: 90 mg/kg intraperitoneal once a day
Procedure: as §1, §2, §3

[5] = system: human colon cancer cells HT29; experiment: MTT growth inhibition, HT29 cells; format: cell-based; details: HT-29, 72 h after treatment, read-out: Drug concentration (IC50) at which 50% cancer cells survived
Source text: as §4, §5, §6, §7, §8, §9, §10, §11, §12, §13

EGFR = experiment: Western Blotting, EGFR level; format: cell-based; details: human liver cancer cells, Lewis lung cancer cells and other cancer cell lines and tumor tissues, read-out: Effective concentration (IC50) for inhibition of EGFR
Source text: (§14) Antibodies: primary antibodies of VEGFR, EGFR, c-Met, K-Ras, H-Ras, Akt, NF-κB, Cyclin D1, ER-alpha, Dvl-1, Dvl-2, Dvl-3, MMP-9, MMP2, β-catenin, Bcl-2, Bax, p53, p21, E-cadherin and Caspase3 protein, purchased from American Cell Signaling Technology Company and Santa Cruz Technology Company; and H3 acetylation, H4 acetylation and HDAC (HDAC3, HDAC4 and the like) Antibody Sample Kits, purchased from Cell Signaling Technology Company of the U.S.
(§15) (3) polyacrylamide gel electrophoresis (SDS-PAGE): an equal amount of protein lysate sample was used to separate protein, film transfer, and blocking, treated with appropriate primary antibodies and secondary antibodies in sequence, and the film was washed, then the color was developed with ECL kit, and a blot protein band was detected by exposure of an X-ray film; and a Gel-Pro Analyzer was used for quantitative analysis of gray degree, optical density value of the control group and the drug treatment group in various concentration were respectively compared with that of internal reference, the obtained ratios were respectively compared with the control group, and the protein expression level was semi-quantified.

HDAC3 = experiment: Western Blotting, HDAC3 level; format: cell-based; details: human liver cancer cells, Lewis lung cancer cells and other cancer cell lines and tumor tissues, read-out: Effective concentration (IC50) for inhibition of HDAC3
Source text: as §14, §15

VEGFR1 = experiment: Western Blotting, VEGFR1 level; format: cell-based; details: human liver cancer cells, Lewis lung cancer cells and other cancer cell lines and tumor tissues, read-out: Effective concentration (IC50) for inhibition of VEGFR1
Source text: as §14, §15

E-cadherin = experiment: Western Blotting, increase of E-cadherin level; format: cell-based; details: liver cancer cells, Lewis lung cancer cells and other cancer cell lines and tumor tissue protein lysates, 48 h treatment, read-out: Effective concentration to increase E-cadherin by 50%
Source text: as §14, §15

HDAC4 = HDAC4 enzyme activity in nuclear extracts of human tumor xenografts of treated mice; details: second value of the pair HDAC3 and HDAC4, SAHA 25 mg/kg
Procedure: For the detection of the effect of the drugs on enzyme activity of EZH2 and HDAC of in-vivo tumors, the tumors were separately excised after 6 h of medication, total proteins and nucleoproteins were extracted separately to detect and analyze the activity of the enzyme.
(2) 50 μl of diluted sample solution was added into each reaction well, the plate was sealed with a plate-sealing film and reacted at room temperature for 30 min;
(3) the plate-sealing film was carefully peeled off, the liquid was removed, dried, 150 μl of washing liquid was added into each well, stood for 30 s, then the liquid was removed, repeated twice, and dried;
(4) 2 μl of HDAC enzyme or tumor tissue nuclear extracts was respectively uniformly mixed with 28 μl of diluted sample solution, added into the wells, the plate was sealed with the plate-sealing film and reacted at 37° C. for 60 min;
(5) the plate was washed for three times, wherein the operation was the same as that in (3); and a diluted antibody capture working solution was added into each reaction well according to 50 μl/well and reacted on a shaking bed at room temperature for 60 min;
(6) the plate was washed for four times, wherein the operation was the same as that in (3);
(7) a diluted antibody detection working solution was added into each reaction well according to 50 μl/well and reacted at room temperature for 30 min;
(8) the plate was washed for five times, wherein the operation was the same as that in (3);
a color developing agent was added according to 100 μl/well, and performed dark development for 2-10 min;
(9) 50 μl of stop solution was added into each well for stopping the reaction when the color in the well with a standard product turned blue with medium intensity, the color immediately turned yellow from blue after the addition;
(10) the light absorbance (OD value) of each well was measured in sequence at the wavelength of 450 nm; wherein the measurement should be performed within 15 min after addition of the stop solution; and

p21 = experiment: Western Blotting, increase of p21 level; format: cell-based; details: liver cancer cells, Lewis lung cancer cells and other cancer cell lines and tumor tissue protein lysates, 48 h treatment, read-out: Effective concentration to increase p21 by 50%
Source text: as §14, §15

Q: For `CCNC(=O)CC[C@H](N)C(=O)OCC` [Compound IIb, theanine ethyl ester], which inhibition in vivo at 60 mg/kg [1] is on record?
A: 32.3%

Q: And the inhibition in vivo at 90 mg/kg [1]?
A: 34.8%

Q: And the IC50 [2]?
A: 400 µM

Q: And the IC50 [3]?
A: 400 µM

Q: And the inhibition in vivo at 60 mg/kg [4]?
A: 33.3%

Q: And the inhibition in vivo at 90 mg/kg [4]?
A: 38.6%

Q: And the IC50 [5]?
A: 600 µM

Q: `CCNC(=O)CC[C@@H](NC(=O)c1cc2cc(Cl)cc(Cl)c2oc1=O)C(=O)OCC` [Compound Ig, (R)-2-(6,8-dichloro-2-oxo-2H-benzopyran-3-carboxamido)-5-ethylamino-5-oxo-pentanoic ethyl ester] was tested. Which IC50 (EGFR) did it give?
A: < 100 µM

Q: What about the inhibition in vivo at 60 mg/kg [1] of the same compound?
A: 55.6%

Q: What about the inhibition in vivo at 90 mg/kg [1] of the same compound?
A: 68.9%

Q: What about the IC50 [2] of the same compound?
A: 71 µM

Q: What about the IC50 (HDAC3) of the same compound?
A: < 65 µM

Q: And the IC50 (VEGFR1)?
A: < 100 µM

Q: What about the IC50 [3] of the same compound?
A: 78 µM

Q: What about the EC50 (E-cadherin) of the same compound?
A: < 70 µM

Q: And the “decrease of HDAC4 enzyme activity/inhibition rate” value (HDAC4; A549 tumor grown in vivo)?
A: 63%*(A549)-

Q: And the “decrease of HDAC4 enzyme activity/inhibition rate” value (HDAC4; MCF7 tumor grown in vivo)?
A: 68%*(MCF7)

Q: What about the “decrease of HDAC4 enzyme activity/inhibition rate” value (HDAC4; MDA-MB231 tumor grown in vivo) of the same compound?
A: 66%*(MDA-MB231)

Q: What about the “decrease of HDAC4 enzyme activity/inhibition rate” value (HDAC4; SMMC7721 tumor grown in vivo) of the same compound?
A: 64%*(SMMC7721);

Q: And the inhibition in vivo at 60 mg/kg [4]?
A: 56.6%

Q: And the inhibition in vivo at 90 mg/kg [4]?
A: 66.6%

Q: And the EC50 (p21)?
A: < 70 µM

Q: What about the IC50 [5] of the same compound?
A: 99 µM

Q: What does the source list for `CCNC(=O)CC[C@@H](NC(=O)c1cc2cc(Br)cc(Br)c2oc1=O)C(=O)OCC` [Compound Ih, (R)-2-(6,8-dibromo-2-oxo-2H-benzopyran-3-carboxamido)-5-ethylamino-5-oxo-pentanoic ethyl ester]?
A: IC50 (EGFR): < 100 µM; inhibition in vivo at 60 mg/kg [1]: 51.3%; inhibition in vivo at 90 mg/kg [1]: 67.3%; IC50 [2]: 78 µM; IC50 (HDAC3): < 65 µM; IC50 (VEGFR1): < 100 µM; IC50 [3]: 86 µM; EC50 (E-cadherin): < 70 µM; decrease of HDAC4 enzyme activity/inhibition rate (HDAC4; A549 tumor grown in vivo): 59%*(A549)-; decrease of HDAC4 enzyme activity/inhibition rate (HDAC4; MCF7 tumor grown in vivo): 66%*(MCF7); decrease of HDAC4 enzyme activity/inhibition rate (HDAC4; MDA-MB231 tumor grown in vivo): 64%*(MDA-MB231); decrease of HDAC4 enzyme activity/inhibition rate (HDAC4; SMMC7721 tumor grown in vivo): 62%*(SMMC7721);; inhibition in vivo at 60 mg/kg [4]: 53.8%; inhibition in vivo at 90 mg/kg [4]: 63.8%; EC50 (p21): < 100 µM; IC50 [5]: 108 µM

Q: For `CCNC(=O)CC[C@@H](NC(=O)c1cc2cc(Br)ccc2oc1=O)C(=O)OCC` [Compound Id, (R)-2-(6-Br-2-oxo-2H-benzopyran-3-carboxamido)-5-ethylamino-5-oxo-pentanoic acid ethyl ester], which IC50 (EGFR) is on record?
A: < 100 µM

Q: And the inhibition in vivo at 60 mg/kg [1]?
A: 54.2%

Q: What about the inhibition in vivo at 90 mg/kg [1] of the same compound?
A: 64.8%

Q: What about the IC50 [2] of the same compound?
A: 55 µM

Q: And the IC50 (HDAC3)?
A: < 65 µM

Q: What about the IC50 (VEGFR1) of the same compound?
A: < 100 µM

Q: And the IC50 [3]?
A: 65 µM

Q: What about the EC50 (E-cadherin) of the same compound?
A: < 65 µM

Q: What about the “decrease of HDAC4 enzyme activity/inhibition rate” value (HDAC4; A549 tumor grown in vivo) of the same compound?
A: 73%*(A549)-

Q: What about the “decrease of HDAC4 enzyme activity/inhibition rate” value (HDAC4; MCF7 tumor grown in vivo) of the same compound?
A: 63%*(MCF7)

Q: And the “decrease of HDAC4 enzyme activity/inhibition rate” value (HDAC4; MDA-MB231 tumor grown in vivo)?
A: 65%*(MDA-MB231)

Q: And the “decrease of HDAC4 enzyme activity/inhibition rate” value (HDAC4; SMMC7721 tumor grown in vivo)?
A: 67%*(SMMC7721);

Q: And the inhibition in vivo at 60 mg/kg [4]?
A: 63.6%

Q: And the inhibition in vivo at 90 mg/kg [4]?
A: 69.6%

Q: And the EC50 (p21)?
A: < 100 µM

Q: And the IC50 [5]?
A: 45 µM
